The supplement of paper PMC7017272
± gives the standard deviation of the averaged measurements.

How the values were obtained:
UT-SCC-81 [1] = test: maximal % inhibition of viability relative to DMSO; higher = stronger effect; conditions: treatment time: 3 days
Description: (§1)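 HNSCC cell lines (500 cells/well, 384-well) were cultured on plastic, on top of (2D) or embedded (3D) in Matrigel or human leiomyoma matrix Myogel (500 ug/mL; Myogel 3D mixed with rat collagen I). Cells were treated for 3 days with 5 ten-fold concentrations of each drug, and viability was read by CellTiter-Glo. Viability was normalised to DMSO and benzethonium chloride controls and fitted with the FIMM DSRT pipeline to give IC50 (nM), maximal % inhibition and DSS. Suffixes _1/_2/_3 are replicates. Only inhibition-mode (IC50) fits are kept.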

UT-SCC-8 [2] = test: as above; conditions: treatment time: 3 days
Description: as §1

UT-SCC-24B [3] = test: as above; conditions: treatment time: 3 days
Description: as §1

UT-SCC-14 = test: as above; conditions: treatment time: 3 days
Description: as §1

UT-SCC-40 = test: as above; conditions: treatment time: 3 days
Description: as §1

UT-SCC-42B [4] = test: as above; conditions: treatment time: 3 days
Description: as §1

UT-SCC-28 [5] = test: as above; conditions: treatment time: 3 days
Description: as §1

UT-SCC-42A = test: as above; conditions: treatment time: 3 days
Description: as §1

UT-SCC-24A = test: relative IC50 (midpoint of the fitted curve; maximal inhibition may be below 50%); higher = less potent; conditions: treatment time: 3 days
Description: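 HNSCC cell lines (500 cells/well, 384-well) were cultured on plastic, on top of (2D) or embedded (3D) in Matrigel or human leiomyoma matrix Myogel (500 ug/mL; Myogel 3D mixed with rat collagen I). Cells were treated for 3 days with 5 ten-fold concentrations of each drug, and viability was read by CellTiter-Glo. Viability was normalised to DMSO (0% inhibition) and 100 uM benzethonium chloride (100% inhibition) controls and fitted with the FIMM DSRT pipeline to give IC50 (nM), maximal % inhibition and the drug sensitivity score (DSS). Suffixes _1/_2/_3 on drug names are replicates.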

UT-SCC-81 [6] = test: relative IC50 (midpoint of the fitted curve; maximal inhibition may be below 50%); higher = less potent; conditions: culture condition: embedded in Myogel + collagen I; treatment time: 3 days
How it was run: (§2)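 Viability of HPV-negative HNSCC cell lines was measured by CellTiter-Glo 2.0 luminescence. Cells were seeded at 500 cells/well in 384-well plates on plastic, on Matrigel- or Myogel-coated wells (500 µg/mL), or embedded in Matrigel or Myogel plus rat collagen I, then given compounds at five 10-fold concentrations for 3 days, with signals normalised to vehicle (0.1% DMSO) and cell-killing control wells. Fitting of percent-inhibition dose–response curves in the FIMM pipeline yielded IC50, maximal inhibition and drug sensitivity score.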

UT-SCC-8 [7] = test: as above; conditions: culture condition: embedded in Myogel + collagen I; treatment time: 3 days
How it was run: as §2

UT-SCC-24B [8] = test: as above; conditions: treatment time: 3 days
How it was run: as §2

UT-SCC-44 = test: as above; conditions: treatment time: 3 days
How it was run: as §2

UT-SCC-73 = test: as above; conditions: culture condition: plastic 2D (no matrix); treatment time: 3 days
How it was run: as §2

UT-SCC-106A = test: as above; conditions: treatment time: 3 days
How it was run: as §2

UT-SCC-42B [9] = test: as above; conditions: treatment time: 3 days
How it was run: as §2

UT-SCC-28 [10] = test: as above; conditions: culture condition: embedded in Matrigel; treatment time: 3 days
How it was run: as §2

[11] = culture condition: embedded in Matrigel
[12] = culture condition: embedded in Myogel + collagen I
[13] = culture condition: on top of Matrigel
[14] = culture condition: on top of Myogel
[15] = culture condition: plastic 2D (no matrix)

C#Cc1cccc(Nc2ncnc3cc(OCCOC)c(OCCOC)cc23)c1 [Erlotinib]
maximal % inhibition of viability (UT-SCC-81 [1]; [11]): 77.1 ± 4.2% | maximal % inhibition of viability (UT-SCC-81 [1]; [12]): 6.5 ± 5.1% | maximal % inhibition of viability (UT-SCC-81 [1]; [13]): 62 ± 6.1% | maximal % inhibition of viability (UT-SCC-81 [1]; [14]): 15.7 ± 4.9% | maximal % inhibition of viability (UT-SCC-81 [1]; [15]): 12.4 ± 3.9% | maximal % inhibition of viability (UT-SCC-8 [2]; [11]): 67.3 ± 28% | maximal % inhibition of viability (UT-SCC-8 [2]; [12]): 14.7 ± 22% | maximal % inhibition of viability (UT-SCC-8 [2]; [13]): 55.5 ± 29% | maximal % inhibition of viability (UT-SCC-8 [2]; [14]): 21.4 ± 0.72% | maximal % inhibition of viability (UT-SCC-8 [2]; [15]): 40.5 ± 14% | maximal % inhibition of viability (UT-SCC-24B [3]; [11]): 76.5 ± 0.95% | maximal % inhibition of viability (UT-SCC-24B [3]; [12]): 67.5 ± 6.2% | maximal % inhibition of viability (UT-SCC-24B [3]; [13]): 74.4 ± 3% | maximal % inhibition of viability (UT-SCC-24B [3]; [14]): 59.3 ± 5% | maximal % inhibition of viability (UT-SCC-24B [3]; [15]): 80.9 ± 1.6% | maximal % inhibition of viability (UT-SCC-14; [11]): 29.5 ± 7.8% | maximal % inhibition of viability (UT-SCC-14; [12]): 9.87 ± 4.7% | maximal % inhibition of viability (UT-SCC-14; [13]): 9.6 ± 10% | maximal % inhibition of viability (UT-SCC-14; [14]): 11.6 ± 10% | maximal % inhibition of viability (UT-SCC-14; [15]): 8.77 ± 15% | maximal % inhibition of viability (UT-SCC-40; [11]): 18.6 ± 8.3% | maximal % inhibition of viability (UT-SCC-40; [12]): 11.2 ± 9.4% | maximal % inhibition of viability (UT-SCC-40; [13]): 7.93 ± 2.4% | maximal % inhibition of viability (UT-SCC-40; [14]): 7.8 ± 4.5% | maximal % inhibition of viability (UT-SCC-40; [15]): 9.97 ± 3.5% | maximal % inhibition of viability (UT-SCC-42B [4]; [11]): 36.7 ± 12% | maximal % inhibition of viability (UT-SCC-42B [4]; [13]): 13.7 ± 13% | maximal % inhibition of viability (UT-SCC-42B [4]; [14]): 4.07 ± 4.7% | maximal % inhibition of viability (UT-SCC-42B [4]; [15]): 4.5 ± 0.98% | maximal % inhibition of viability (UT-SCC-28 [5]; [11]): 11.3 ± 9.9% | maximal % inhibition of viability (UT-SCC-28 [5]; [12]): 14 ± 5.9% | maximal % inhibition of viability (UT-SCC-28 [5]; [13]): 12.2 ± 3.6% | maximal % inhibition of viability (UT-SCC-28 [5]; [15]): 8.37 ± 7.3% | maximal % inhibition of viability (UT-SCC-42A; [11]): 23.9 ± 23% | maximal % inhibition of viability (UT-SCC-42A; [12]): 9.7 ± 4.9% | maximal % inhibition of viability (UT-SCC-42A; [13]): 32.1 ± 18% | maximal % inhibition of viability (UT-SCC-42A; [14]): 12.6 ± 2.3% | maximal % inhibition of viability (UT-SCC-42A; [15]): 20.6 ± 17% | relative IC50 (UT-SCC-24A; [12]): 1.56 µM | relative IC50 (UT-SCC-24A; [13]): 0.86 µM | relative IC50 (UT-SCC-24A; [14]): > 9.89 µM | relative IC50 (UT-SCC-24A; [15]): 0.855 µM | relative IC50 (UT-SCC-81 [6]): > 9.89 µM | relative IC50 (UT-SCC-8 [7]): > 9.89 µM | relative IC50 (UT-SCC-24B [8]; [11]): 0.522 µM | relative IC50 (UT-SCC-24B [8]; [13]): 0.591 µM | relative IC50 (UT-SCC-24B [8]; [14]): 2.49 µM | relative IC50 (UT-SCC-24B [8]; [15]): 0.227 µM | relative IC50 (UT-SCC-44; [11]): > 9.89 µM | relative IC50 (UT-SCC-44; [13]): > 9.89 µM | relative IC50 (UT-SCC-73): > 9.89 µM | relative IC50 (UT-SCC-106A; [11]): 2.07 µM | relative IC50 (UT-SCC-106A; [14]): > 9.89 µM | relative IC50 (UT-SCC-42B [9]; [11]): 2.11 µM | relative IC50 (UT-SCC-42B [9]; [14]): > 9.89 µM | relative IC50 (UT-SCC-42B [9]; [15]): > 9.89 µM | relative IC50 (UT-SCC-28 [10]): > 9.89 µM
